The source of these data is patent publication US10973863B2, “Method for regulating, preventing and/or treating pulmonary injury” (SINPHAR PHARMACEUTICAL CO., LTD., priority 2017, dated 2021).

Test [1] has as its system TGFβ-induced intracellular accumulation of collagen in myofibroblast WI38 cells. Put plainly: Picrosirius red staining: TGFβ-induced collagen accumulation in WI38 cells. The format is cell-based. As to conditions: Table 7, 1 ng/mL TGF-β, 24 hours. From the text:
As indicated above, the hyperactive expression of MMPs will cause pulmonary injury. Under the most circumstances, the response mechanisms in animals will activate, for example, macrophages will secret TGF-β and TGF-β which can promote the lung fibroblasts to secret collagen, so that the damaged tissues can be recovered. However, the hypersecretion of collagen will also lead to lung fibrosis. To investigate whether FU-LING extracts and its active ingredients are effective in regulating, protecting and/or treating the pulmonary injury-related diseases such as lung fibrosis or not, the Picrosirius red (PSR) staining was conducted as a semi-quantification of collagen, so that the inhibitory rate of FU-LING extract and its active ingredients on the TGFβ-induced intracellular accumulation of collagen in myofibroblast WI38 cells can be determined.
Myofibroblast WI38 cells (purchased from ATCC, product no. CCL75™) were divided into ten groups and separately cultivated with the following media for 48 hours:
(1) Blank group: a myolibroblast growth medium;
(2) Control group: a myofibroblast growth medium containing 1 ng/mL TGF-β (purchased from R&D system);
(3) Positive control group: a myofibroblast growth medium containing 1 ng/mL TGF-β and 200 μg/mL Pirfenidone (abbreviated as “Pir”; purchased from Sigma-Aldrich);
(4) Extract A (including four sub-groups): a myofibroblast growth medium containing 1 ng/mL TGF-β and the extract A provided by [Preparation example A-2-2], wherein the extract A is present in the four sub-groups at a concentration of 12.5, 25, 50 and 100 μg/mL respectively; and
(5) Extract B (including three sub-groups): a myofibroblast growth medium containing 1 ng/ml, TGF-β and the extract B provided by [Preparation example A-2-3], wherein the extract B is present in the […] at a concentration of 12.5, 25 and 50 μg/mL respectively.
Thereafter, the media were replaced by methanol to fix the cells at a temperature of −20° C. for 1 to 2 hours. After that, the cells were washed with PBS, and then stained with 0.1% PSR staining agent (purchased from Sigma-Aldrich) at room temperature for 4 hours. The stained cells were washed with 0.1% acetic acid, and then lysed with 0.1N sodium hydroxide to provide a lysate. The OD540 (i.e., the absorbance at a wavelength of 540 nm) of the lysate was measured. OD540 value of each group represents the content of collagen in each group, reflecting the content of collagen in fibroblast WI38 cells under different circumstances (the relative content of collagen in each group was calculated by serving the result of blank group as 0% and serving the result of control group as 100%).
Myofibroblast WI38 cells were divided into twenty-eight groups and separately cultivated with the following media for 24 hours:
(1) Blank group: a myofibroblast growth medium;
(3) Positive control group; a myofibroblast growth medium containing 1 ng/mL TGF-β and 200 μg/mL Pirfenidone (abbreviated as “Pir”; purchased from Sigma-Aldrich);
(4) Extract C group (including five sub-groups): a myofibroblast growth medium containing 1 ng/mL TGF-β and the extract C provided by [preparation example A-3-2], wherein the extract C is present in the five sub-groups at a concentration of […], 6.25 and 12.5 μg/mL respectively;
(5) Extract D group (including five sub-groups): a myofibroblast growth medium containing 1 ng/mL TGF-β and the extract D provided by [preparation example A-4-2], wherein the extract D is present in the five sub-groups at a concentration of 0.78, 1.56, 3.13, 6.25 and 12.5 μg/mL respectively;
(6) Extract E group (including five sub-groups): a myofibroblast growth medium containing 1 ng/mL TGF-β and the extract E provided by [preparation example A-4-3], wherein the extract E is present in the five sub-groups at a concentration of 0.78, 1.56, 3.13, 6.25 and 12.5 μg/mL respectively; […]

A further test deals with pro-form MMP-9. As to the kind of experiment: Western blot: pro-form MMP-9 expression in LPS-treated NR8383 cells. It is filed as cell-based, rat. Particulars: 0.01 μg/mL LPS; 6.25 to 50 μg/mL; 24 hours. The method, then:
(§1) Rat alveolar macrophage NR8383 cells were divided into six groups and separately cultivated with the following media for 24 hours: • (1) Control group: a macrophage growth medium containing 0.01 μg/mL LPS; • (2) Positive control group: a macrophage growth medium containing 0.01 μg/mL LPS and 1 μM Dex; and • (3) Extract A group (including four sub-groups): a macrophage growth medium containing 0.01 μg/mL LPS and the extract A provided by [preparation example A-2-2], wherein the extract A is present in the four sub-groups at a concentration of 6.25, 12.5, 25 and 50 μg/mL respectively.
(§2) Thereafter, the proteins in the cells of each group were extracted and then subjected to a Western blot to measure the expression level of pro-form MMP-9 (i.e., the zymogen form of MMP-9), active-form MMP-9 and MMP-12. The relative expression level of pro-form MMP-9, active-form MMP-9 and MMP-12 of each group was calculated by using the results of the control group as a basis (i.e., the expression level of control group was served as 1-fold).
(§3) Rat alveolar macrophage NR8383 cells were divided into ten groups and separately cultivated with the following media for 24 hours:
(§4) (1) Control group: a macrophage growth medium containing 0.01 μg/mL LPS;
(§5) (2) Positive control group: a macrophage growth medium containing 0.01 μg/mL LPS and 1 μM Dex; […]
A general note: In western blotting, separated proteins are transferred to a membrane and probed.

A further test relates to active-form MMP-9. Put plainly: Western blot: active-form MMP-9 expression in LPS-treated NR8383 cells. It is filed as cell-based, rat. Particulars: 0.01 μg/mL LPS; 6.25, 12.5, 25 and 50 μg/mL; 24 hours. On the procedure: as §1, §2, §3, §4, §5

The structures appear in SMILES notation.

On to `C=C(CC[C@@H](C(=O)O)[C@H]1[C@H](O)C[C@@]2(C)C3=CC[C@@H](C(=C)C)[C@](C)(CCC(=O)O)C3=CC[C@]12C)C(C)C` [PAA, poricoic acid A], for which the “Relative content of collagen (%)” value in test [1] (6.25 μg/mL) is listed as 82%; in test [1] (12.5 μg/mL), 78%; in test [1] (25 μg/mL), 48%; in test [1] (50 μg/mL), 0%; in test [1] (100 μg/mL), 0%. The “Expression level of pro-form MMP-9 in comparison with the control group (in words)” value with pro-form MMP-9 was “effective in inhibiting”. For the same compound, in the test on active-form MMP-9, the “Inhibitory rate on active-form MMP-9 (highest over tested concentrations)” value is on record as “up to 44%”.
